The numbers were not newly measured in US8690839B2, “Devices for delivering a medicament and connector for same” (priority 2008, dated 2014), which cites them from elsewhere.

The conditions of data set [1]: for onset (in words): in vivo.
For data set [2] the following is noted: in vivo.

The structures appear in SMILES notation. A value given as a limit tells only on which side of the number the result lay.

As to `CCOC(=O)c1ccc(N)cc1` [Benzocaine, benzocaine], the onset time entry in data set [1] (topical use) is on record as “about 30 seconds”. Besides, the toxic dose in data set [2] is more than 200 mg. Regarding `CCCCNc1ccc(C(=O)OCCN(C)C)cc1` [Tetracaine, tetracaine], the “onset (in words)” value in data set [1] is “fast onset”. With `CCCN1CCCC[C@H]1C(=O)Nc1c(C)cccc1C` [Ropivacaine, ropivacaine], in data set [1], the “onset (in words)” value was “slow onset”. Moreover, the toxic dose entry in data set [2] is on record as “about 175 mg”.
